Test results published in the kinase profiling compilation of Christmann-Franck et al. (2016).
“And” between values parts separate entries of the source, which are not always exact repeats. Equal values may be shown once.

What was measured:
Assay in all cases: radiometric filter-binding kinase assay
BTK (human) = BTK (human) (UniProt Q06187); conditions: compound 100.0 µM; ATP 50 µM
CSK (human) = CSK (human) (UniProt P41240); conditions: compound 100.0 µM; ATP 20 µM
DAPK1 (human) = DAPK1 (human) (UniProt P53355); conditions: compound 100.0 µM; ATP 5 µM
DYRK1A (human) = DYRK1A (human) (UniProt Q13627); conditions: compound 100.0 µM; ATP 50 µM
DYRK3 (human) = DYRK3 (human) (UniProt O43781); conditions: compound 100.0 µM; ATP 5 µM
EEF2K (human) = EEF2K (human) (UniProt O00418); conditions: compound 100.0 µM; ATP 5 µM
EPHA4 (human) = EPHA4 (human) (UniProt P54764); conditions: compound 100.0 µM; ATP 50 µM
EPHB2 (human) = EPHB2 (human) (UniProt P29323); conditions: compound 100.0 µM; ATP 20 µM
EPHB4 (human) = EPHB4 (human) (UniProt P54760); conditions: compound 100.0 µM; ATP 5 µM
Sequence of EPHB4 (human) (P54760 whole entry, looked up): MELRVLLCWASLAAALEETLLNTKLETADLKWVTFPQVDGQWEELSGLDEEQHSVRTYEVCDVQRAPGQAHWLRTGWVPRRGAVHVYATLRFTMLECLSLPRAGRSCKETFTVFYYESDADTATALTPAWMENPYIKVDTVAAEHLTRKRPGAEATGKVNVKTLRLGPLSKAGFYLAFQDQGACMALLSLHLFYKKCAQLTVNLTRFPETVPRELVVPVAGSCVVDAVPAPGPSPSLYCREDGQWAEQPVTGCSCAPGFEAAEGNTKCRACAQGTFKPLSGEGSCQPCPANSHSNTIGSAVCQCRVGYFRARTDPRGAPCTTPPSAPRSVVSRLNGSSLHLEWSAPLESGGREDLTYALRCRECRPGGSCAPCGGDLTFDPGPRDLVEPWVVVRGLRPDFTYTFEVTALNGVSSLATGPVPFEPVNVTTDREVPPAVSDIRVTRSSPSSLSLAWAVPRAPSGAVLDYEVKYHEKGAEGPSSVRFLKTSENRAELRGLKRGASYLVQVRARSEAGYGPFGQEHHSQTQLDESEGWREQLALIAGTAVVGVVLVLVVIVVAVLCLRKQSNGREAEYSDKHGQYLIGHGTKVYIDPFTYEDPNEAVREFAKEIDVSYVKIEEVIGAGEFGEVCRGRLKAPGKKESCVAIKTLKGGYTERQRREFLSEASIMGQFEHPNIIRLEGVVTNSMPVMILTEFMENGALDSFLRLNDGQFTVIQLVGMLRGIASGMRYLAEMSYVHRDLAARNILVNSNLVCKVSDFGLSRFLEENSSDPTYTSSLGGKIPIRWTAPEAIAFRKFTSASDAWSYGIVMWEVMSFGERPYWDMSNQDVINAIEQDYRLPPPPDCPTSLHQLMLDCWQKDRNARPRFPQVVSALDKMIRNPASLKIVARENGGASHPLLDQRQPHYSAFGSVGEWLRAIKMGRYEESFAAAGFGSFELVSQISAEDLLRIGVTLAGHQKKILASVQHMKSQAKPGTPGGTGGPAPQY

ERBB4 (human) = ERBB4 (human) (UniProt Q15303); conditions: compound 100.0 µM; ATP 5 µM
HIPK3 (human) = HIPK3 (human) (UniProt Q9H422); conditions: compound 100.0 µM; ATP 20 µM
LCK (mouse) = conditions: compound 100.0 µM; ATP 50 µM; accession and sequence are those of the human protein
MAP2K6 (human) = MAP2K6 (human) (UniProt P52564); conditions: compound 100.0 µM; ATP 50 µM
MAP3K1 (human) = MAP3K1 (human) (UniProt Q13233); conditions: compound 100.0 µM; ATP 50 µM
MAP3K5 (human) = MAP3K5 (human) (UniProt Q99683); conditions: compound 100.0 µM; ATP 50 µM
MAPK11 (human) = MAPK11 (human) (UniProt Q15759); conditions: compound 100.0 µM; ATP 20 µM
MAPK8 (human) = MAPK8 (human) (UniProt P45983); conditions: compound 100.0 µM; ATP 20 µM
MAPKAPK2 (human) = MAPKAPK2 (human) (UniProt P49137); conditions: compound 100.0 µM; ATP 20 µM
MAPKAPK5 (human) = MAPKAPK5 (human) (UniProt Q8IW41); conditions: compound 100.0 µM; ATP 20 µM
MARK3 (human) = MARK3 (human) (UniProt P27448); conditions: compound 100.0 µM; ATP 5 µM
MINK1 (human) = MINK1 (human) (UniProt Q8N4C8); conditions: compound 100.0 µM; ATP 50 µM
MKNK1 (human) = MKNK1 (human) (UniProt Q9BUB5); conditions: compound 100.0 µM; ATP 50 µM
MKNK2 (human) = MKNK2 (human) (UniProt Q9HBH9); conditions: compound 100.0 µM; ATP 50 µM
MYLK (human) = MYLK (human) (UniProt Q15746); conditions: compound 100.0 µM; ATP 50 µM
NEK2 (human) = NEK2 (human) (UniProt P51955); conditions: compound 100.0 µM; ATP 50 µM
NUAK1 (human) = NUAK1 (human) (UniProt O60285); conditions: compound 100.0 µM; ATP 20 µM
[1] = system: PAK2 (human), Q13177 [T402E]; conditions: compound 100.0 µM; ATP 20 µM
PRKACA (human) = PRKACA (human) (UniProt P17612); conditions: compound 100.0 µM; ATP 20 µM
PRKCG (human) = PRKCG (human) (UniProt P05129); conditions: compound 100.0 µM; ATP 20 µM
ROCK2 (rat) = conditions: compound 100.0 µM; ATP 20 µM; accession and sequence are those of the human protein
RPS6KA1 KD1 KD2 (human) = RPS6KA1 KD1 KD2 (human) (UniProt Q15418); conditions: compound 100.0 µM; ATP 50 µM
RPS6KA3 KD1 KD2 (human) = RPS6KA3 KD1 KD2 (human) (UniProt P51812); conditions: compound 100.0 µM; ATP 50 µM
Sequence of RPS6KA3 KD1 KD2 (human) (P51812 whole entry, looked up): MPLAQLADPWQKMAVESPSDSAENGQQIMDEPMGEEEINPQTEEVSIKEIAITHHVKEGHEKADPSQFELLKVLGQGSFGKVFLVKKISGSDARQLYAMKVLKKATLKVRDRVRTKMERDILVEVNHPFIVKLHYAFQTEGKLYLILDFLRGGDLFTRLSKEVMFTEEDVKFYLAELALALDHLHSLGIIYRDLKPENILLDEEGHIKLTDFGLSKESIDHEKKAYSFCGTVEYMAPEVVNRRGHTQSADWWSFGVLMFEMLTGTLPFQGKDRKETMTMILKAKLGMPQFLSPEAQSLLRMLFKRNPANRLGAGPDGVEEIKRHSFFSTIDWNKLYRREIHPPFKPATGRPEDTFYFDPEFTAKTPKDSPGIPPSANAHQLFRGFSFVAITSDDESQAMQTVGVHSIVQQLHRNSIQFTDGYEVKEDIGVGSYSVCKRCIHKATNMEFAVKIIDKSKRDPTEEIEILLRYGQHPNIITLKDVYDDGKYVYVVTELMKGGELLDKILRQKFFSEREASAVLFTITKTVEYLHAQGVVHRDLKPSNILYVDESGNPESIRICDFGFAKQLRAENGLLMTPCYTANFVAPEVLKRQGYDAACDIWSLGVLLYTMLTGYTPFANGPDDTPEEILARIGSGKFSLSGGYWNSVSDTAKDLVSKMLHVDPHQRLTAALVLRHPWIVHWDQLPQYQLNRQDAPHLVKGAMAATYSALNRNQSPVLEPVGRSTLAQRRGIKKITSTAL

RPS6KA5 KD1 KD2 (human) = RPS6KA5 KD1 KD2 (human) (UniProt O75582); conditions: compound 100.0 µM; ATP 20 µM
Sequence of RPS6KA5 KD1 KD2 (human) (O75582 whole entry, looked up): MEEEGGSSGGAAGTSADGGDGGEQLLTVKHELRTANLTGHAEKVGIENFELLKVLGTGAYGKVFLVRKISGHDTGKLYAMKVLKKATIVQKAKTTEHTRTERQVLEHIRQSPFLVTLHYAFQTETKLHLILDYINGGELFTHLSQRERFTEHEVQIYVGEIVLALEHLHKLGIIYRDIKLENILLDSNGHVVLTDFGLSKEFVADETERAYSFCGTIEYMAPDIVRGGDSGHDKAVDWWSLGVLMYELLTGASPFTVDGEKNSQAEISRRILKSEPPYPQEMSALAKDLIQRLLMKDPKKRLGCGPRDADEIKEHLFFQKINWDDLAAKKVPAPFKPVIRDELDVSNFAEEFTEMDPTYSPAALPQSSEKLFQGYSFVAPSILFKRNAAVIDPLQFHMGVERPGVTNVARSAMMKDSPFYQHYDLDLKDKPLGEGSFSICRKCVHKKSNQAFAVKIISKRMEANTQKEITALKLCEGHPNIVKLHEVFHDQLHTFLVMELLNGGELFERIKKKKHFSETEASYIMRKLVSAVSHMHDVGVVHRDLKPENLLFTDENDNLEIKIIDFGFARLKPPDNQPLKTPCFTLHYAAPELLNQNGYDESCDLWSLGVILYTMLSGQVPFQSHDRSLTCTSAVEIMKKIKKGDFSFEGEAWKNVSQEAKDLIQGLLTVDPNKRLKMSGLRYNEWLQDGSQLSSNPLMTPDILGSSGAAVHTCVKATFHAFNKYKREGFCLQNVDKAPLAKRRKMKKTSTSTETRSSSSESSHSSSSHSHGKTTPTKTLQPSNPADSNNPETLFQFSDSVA

SRC (human) = SRC (human) (UniProt P12931); conditions: compound 100.0 µM; ATP 50 µM
Sequence of SRC (human) (P12931 whole entry, looked up): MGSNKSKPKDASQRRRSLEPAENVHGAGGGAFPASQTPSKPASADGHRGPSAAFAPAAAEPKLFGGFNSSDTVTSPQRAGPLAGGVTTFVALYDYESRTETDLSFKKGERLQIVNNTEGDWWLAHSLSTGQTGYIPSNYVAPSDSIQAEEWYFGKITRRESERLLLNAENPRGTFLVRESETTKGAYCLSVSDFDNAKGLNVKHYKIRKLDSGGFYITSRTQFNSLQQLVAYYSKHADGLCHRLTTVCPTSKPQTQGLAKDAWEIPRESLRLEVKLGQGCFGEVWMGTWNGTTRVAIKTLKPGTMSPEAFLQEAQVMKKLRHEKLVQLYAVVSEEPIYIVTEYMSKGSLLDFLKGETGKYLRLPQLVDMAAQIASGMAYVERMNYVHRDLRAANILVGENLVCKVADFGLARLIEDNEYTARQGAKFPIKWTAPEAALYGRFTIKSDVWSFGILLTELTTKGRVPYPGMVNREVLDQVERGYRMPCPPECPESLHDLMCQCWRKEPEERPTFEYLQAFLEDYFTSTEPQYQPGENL

STK3 (human) = STK3 (human) (UniProt Q13188); conditions: compound 100.0 µM; ATP 20 µM
TAOK1 (human) = TAOK1 (human) (UniProt Q7L7X3); conditions: compound 100.0 µM; ATP 20 µM
TEK (human) = TEK (human) (UniProt Q02763); conditions: compound 100.0 µM; ATP 20 µM
YES1 (human) = YES1 (human) (UniProt P07947); conditions: compound 100.0 µM; ATP 20 µM
Sequence of YES1 (human) (P07947 whole entry, looked up): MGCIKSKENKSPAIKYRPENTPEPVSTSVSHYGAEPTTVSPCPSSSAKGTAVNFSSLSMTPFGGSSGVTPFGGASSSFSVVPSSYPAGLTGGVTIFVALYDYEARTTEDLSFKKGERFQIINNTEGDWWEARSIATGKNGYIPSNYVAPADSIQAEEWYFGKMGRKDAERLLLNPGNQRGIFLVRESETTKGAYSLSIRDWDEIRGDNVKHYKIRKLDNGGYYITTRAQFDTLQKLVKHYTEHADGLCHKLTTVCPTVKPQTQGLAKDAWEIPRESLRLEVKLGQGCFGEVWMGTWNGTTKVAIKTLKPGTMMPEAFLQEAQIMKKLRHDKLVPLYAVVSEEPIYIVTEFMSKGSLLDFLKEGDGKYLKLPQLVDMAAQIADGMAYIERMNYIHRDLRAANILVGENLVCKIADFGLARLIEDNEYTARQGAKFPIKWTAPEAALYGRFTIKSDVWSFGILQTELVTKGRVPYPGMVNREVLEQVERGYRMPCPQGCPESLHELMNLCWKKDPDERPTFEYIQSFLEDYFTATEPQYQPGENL

ZAP70 (human) = ZAP70 (human) (UniProt P43403); conditions: compound 100.0 µM; ATP 5 µM
Sequence of ZAP70 (human) (P43403 whole entry, looked up): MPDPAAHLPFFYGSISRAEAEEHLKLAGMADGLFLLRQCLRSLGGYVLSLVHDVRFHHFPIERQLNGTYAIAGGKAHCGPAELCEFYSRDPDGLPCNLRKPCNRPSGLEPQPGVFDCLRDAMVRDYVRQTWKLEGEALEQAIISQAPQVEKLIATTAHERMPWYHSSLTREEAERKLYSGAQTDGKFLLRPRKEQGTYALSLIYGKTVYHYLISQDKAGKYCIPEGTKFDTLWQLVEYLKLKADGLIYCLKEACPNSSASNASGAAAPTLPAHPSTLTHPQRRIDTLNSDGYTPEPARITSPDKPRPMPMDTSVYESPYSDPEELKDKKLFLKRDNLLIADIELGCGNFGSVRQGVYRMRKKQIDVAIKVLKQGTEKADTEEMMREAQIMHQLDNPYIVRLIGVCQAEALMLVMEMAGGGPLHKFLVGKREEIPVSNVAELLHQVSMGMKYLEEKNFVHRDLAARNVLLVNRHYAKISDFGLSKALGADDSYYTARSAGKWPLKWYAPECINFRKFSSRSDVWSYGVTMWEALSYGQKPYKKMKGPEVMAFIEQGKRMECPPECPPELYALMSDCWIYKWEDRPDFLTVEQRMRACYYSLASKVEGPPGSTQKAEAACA

O=c1cc(-c2ccccc2F)nc2[nH]ccn12
inhibition (BTK (human)): 49%
inhibition (CSK (human)): 8%
inhibition (DAPK1 (human)): 5%
inhibition (DYRK1A (human)): 31%
inhibition (DYRK3 (human)): 30%
inhibition (EEF2K (human)): 7%
inhibition (EPHA4 (human)): 16%
inhibition (EPHB2 (human)): 0%
inhibition (EPHB4 (human)): 6%
inhibition (ERBB4 (human)): 48%
inhibition (HIPK3 (human)): 0%
inhibition (LCK (mouse)): 23%
inhibition (MAP2K6 (human)): 0%
inhibition (MAP3K1 (human)): 53%
inhibition (MAP3K5 (human)): 8%
inhibition (MAPK11 (human)): 23%
inhibition (MAPK8 (human)): 0%
inhibition (MAPKAPK2 (human)): 22%
inhibition (MAPKAPK5 (human)): 13%
inhibition (MARK3 (human)): 11%
inhibition (MINK1 (human)): 28%
inhibition (MKNK1 (human)): 31%
inhibition (MKNK2 (human)): 26%
inhibition (MYLK (human)): 13%
inhibition (NEK2 (human)): 29%
inhibition (NUAK1 (human)): 6%
inhibition [1]: 0%
inhibition (PRKACA (human)): 0% and 11%
inhibition (PRKCG (human)): 7%
inhibition (ROCK2 (rat)): 29%
inhibition (RPS6KA1 KD1 KD2 (human)): 16%
inhibition (RPS6KA3 KD1 KD2 (human)): 25%
inhibition (RPS6KA5 KD1 KD2 (human)): 21%
inhibition (SRC (human)): 11%
inhibition (STK3 (human)): 27%
inhibition (TAOK1 (human)): 3%
inhibition (TEK (human)): 0%
inhibition (YES1 (human)): 33%
inhibition (ZAP70 (human)): 0%

O=C(c1cccc(-c2cc3c(=O)[nH]cnc3s2)c1)N1CCOCC1
inhibition (BTK (human)): 46%
inhibition (CSK (human)): 10%
inhibition (DAPK1 (human)): 0%
inhibition (DYRK1A (human)): 52%
inhibition (DYRK3 (human)): 47%
inhibition (EEF2K (human)): 39%
inhibition (EPHA4 (human)): 0%
inhibition (EPHB2 (human)): 27%
inhibition (EPHB4 (human)): 0%
inhibition (ERBB4 (human)): 33%
inhibition (HIPK3 (human)): 0%
inhibition (LCK (mouse)): 40%
inhibition (MAP2K6 (human)): 2%
inhibition (MAP3K1 (human)): 0%
inhibition (MAP3K5 (human)): 54%
inhibition (MAPK11 (human)): 15%
inhibition (MAPK8 (human)): 8%
inhibition (MAPKAPK2 (human)): 15%
inhibition (MAPKAPK5 (human)): 0%
inhibition (MARK3 (human)): 29%
inhibition (MINK1 (human)): 40%
inhibition (MKNK1 (human)): 0%
inhibition (MKNK2 (human)): 30%
inhibition (MYLK (human)): 8%
inhibition (NEK2 (human)): 2%
inhibition (NUAK1 (human)): 0%
inhibition [1]: 0%
inhibition (PRKACA (human)): 17% and 42%
inhibition (PRKCG (human)): 16%
inhibition (ROCK2 (rat)): 39%
inhibition (RPS6KA1 KD1 KD2 (human)): 47%
inhibition (RPS6KA3 KD1 KD2 (human)): 39%
inhibition (RPS6KA5 KD1 KD2 (human)): 24%
inhibition (SRC (human)): 33%
inhibition (STK3 (human)): 27%
inhibition (TAOK1 (human)): 3%
inhibition (TEK (human)): 0%
inhibition (YES1 (human)): 0%
inhibition (ZAP70 (human)): 0%

Nc1nc2cnc(-c3ccccc3)cn2n1
inhibition (BTK (human)): 67%
inhibition (CSK (human)): 71%
inhibition (DAPK1 (human)): 31%
inhibition (DYRK1A (human)): 77%
inhibition (DYRK3 (human)): 76%
inhibition (EEF2K (human)): 36%
inhibition (EPHA4 (human)): 42%
inhibition (EPHB2 (human)): 30%
inhibition (EPHB4 (human)): 56%
inhibition (ERBB4 (human)): 83%
inhibition (HIPK3 (human)): 16%
inhibition (LCK (mouse)): 75%
inhibition (MAP2K6 (human)): 3%
inhibition (MAP3K1 (human)): 34%
inhibition (MAP3K5 (human)): 32%
inhibition (MAPK11 (human)): 34%
inhibition (MAPK8 (human)): 30%
inhibition (MAPKAPK2 (human)): 56%
inhibition (MAPKAPK5 (human)): 34%
inhibition (MARK3 (human)): 59%
inhibition (MINK1 (human)): 68%
inhibition (MKNK1 (human)): 71%
inhibition (MKNK2 (human)): 66%
inhibition (MYLK (human)): 19%
inhibition (NEK2 (human)): 77%
inhibition (NUAK1 (human)): 73%
inhibition [1]: 31%
inhibition (PRKACA (human)): 9%
inhibition (PRKCG (human)): 24%
inhibition (ROCK2 (rat)): 52%
inhibition (RPS6KA1 KD1 KD2 (human)): 34%
inhibition (RPS6KA3 KD1 KD2 (human)): 51%
inhibition (RPS6KA5 KD1 KD2 (human)): 19%
inhibition (SRC (human)): 48%
inhibition (STK3 (human)): 6%
inhibition (TAOK1 (human)): 37%
inhibition (TEK (human)): 39%
inhibition (YES1 (human)): 89%
inhibition (ZAP70 (human)): 0%
